Assay results as given in patent US11524938B2, “Aromatic sulfonamide derivatives” (Bayer Pharma Aktiengesellschaft, priority 2016, dated 2022).

Target: T1, human P2X4 (Homo sapiens, UniProt Q99571)
T1 sequence (Q99571 1-388): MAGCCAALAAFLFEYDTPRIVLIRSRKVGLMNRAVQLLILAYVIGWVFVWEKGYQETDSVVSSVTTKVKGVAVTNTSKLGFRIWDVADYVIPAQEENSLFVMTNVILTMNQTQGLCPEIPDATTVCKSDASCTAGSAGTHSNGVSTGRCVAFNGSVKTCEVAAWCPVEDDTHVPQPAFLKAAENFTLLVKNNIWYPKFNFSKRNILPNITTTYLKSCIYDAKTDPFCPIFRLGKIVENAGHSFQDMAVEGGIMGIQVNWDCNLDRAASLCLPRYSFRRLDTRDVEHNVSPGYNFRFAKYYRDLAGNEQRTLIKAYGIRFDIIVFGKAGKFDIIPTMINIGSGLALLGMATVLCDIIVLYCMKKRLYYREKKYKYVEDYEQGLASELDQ
Experiment: Human P2X4 HEK Cell FLIPR Assay
Assay type: cell-based
Settings: agonist Bz-ATP at EC80; for Emax: HEK293, HEK293 cells, percentage of maximal inhibition, read-out: Human P2X4 HEK Cells (FLIPR Assay) avg Efficacy [%]; for IC50: HEK293 cells, individual values listed where some fall outside detection range
Procedure, shortened: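 Calcium flux read by FLIPR for 120 sec after Bz-ATP challenge at EC80 (established each assay day), following 30 min room-temperature compound preincubation in dye-loaded stable human P2X4 HEK293 cells. Peak RFU over basal normalized to agonist control; IC50, maximal inhibition and Hill coefficient from triplicate means.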

Row | Compound | Emax | IC50
1 | NS(=O)(=O)c1cc(NC(=O)Cc2ccccc2Cl)ccc1-c1cc(C2CC2)on1 [Example 438, 2-(2-Chlorophenyl)-N-[4-(5-cyclopropyl-1,2-oxazol-3-yl)-3-sulfamoylphenyl]acetamide] | 75% | 18 nM
2 | Cc1nn(-c2ccc(NC(=O)Cc3ccccc3Cl)cc2S(N)(=O)=O)cc1C#N [Example 548, 2-(2-Chlorophenyl)-N-[4-(4-cyano-3-methyl-1H-pyrazol-1-yl)-3-sulfamoylphenyl]acetamide] | 94% | 5 nM
3 | CCOc1ccccc1CC(=O)Nc1ccc(-n2cc(Cl)cn2)c(S(N)(=O)=O)c1 [Example 175, N-[4-(4-Chloro-1H-pyrazol-1-yl)-3-sulfamoylphenyl]-2-(2-ethoxyphenyl)acetamide] | 88% | 226 nM
4 | CC(C)c1ccccc1CC(=O)Nc1ccc(-n2cc(C#N)cn2)c(S(N)(=O)=O)c1 [Example 213, N-[4-(4-Cyano-1H-pyrazol-1-yl)-3-sulfamoylphenyl]-2-[2-(propan-2-yl)phenyl]-acetamide] | 93% | 47 nM
5 | NS(=O)(=O)c1cc(NC(=O)Cc2ccccc2Cl)ccc1-c1ccncc1 [Example 552, 2-(2-Chlorophenyl)-N-[4-(pyridin-4-yl)-3-sulfamoylphenyl]acetamide] | 88% | 1 nM
6 | Cc1ccc(CC(=O)Nc2ccc(-n3cc(F)cn3)c(S(N)(=O)=O)c2)cc1 [Example 152, N-[4-(4-Fluoro-1H-pyrazol-1-yl)-3-sulfamoylphenyl]-2-(4-methylphenyl)acetamide] | 79% | 105 nM
7 | NS(=O)(=O)c1cc(NC(=O)Cc2ccccc2OC(F)F)ccc1-n1cc(Br)cn1 [Example 69, N-[4-(4-Bromo-1H-pyrazol-1-yl)-3-sulfamoylphenyl]-2-[2-(difluoromethoxy)-phenyl]acetamide] | 80% | 210 nM
8 | NS(=O)(=O)c1cc(NC(=O)Cc2ccc(Cl)cc2)ccc1-n1cc(Cl)cn1 [Example 76, 2-(4-Chlorophenyl)-N-[4-(4-chloro-1H-pyrazol-1-yl)-3-sulfamoylphenyl]acetamide] | 34% | > 25000 nM
9 | NS(=O)(=O)c1cc(NC(=O)Cc2ccccc2Cl)ccc1-n1cccc(Cl)c1=O [Example 4, N-[4-(3-Chloro-2-oxopyridin-1(2H)-yl)-3-sulfamoylphenyl]-2-(2-chlorophenyl)-acetamide] | 83% | 259 nM
10 | NS(=O)(=O)c1cc(NC(=O)Cc2ccccc2Cl)ccc1-n1cncn1 [Example 16, 2-(2-Chlorophenyl)-N-[3-sulfamoyl-4-(1H-1,2,4-triazol-1-yl)phenyl]acetamide] | 89% | 262 nM
11 | COCCn1cc(-c2ccc(NC(=O)Cc3ccccc3F)cc2S(N)(=O)=O)cn1 [Example 369, 2-(2-Fluorophenyl)-N-{4-[1-(2-methoxyethyl)-1H-pyrazol-4-yl]-3-sulfamoylphenyl}acetamide] | 110% | 141 nM
12 | CC(C)(C)n1cc(-c2ccc(NC(=O)Cc3ccccc3F)cc2S(N)(=O)=O)cn1 [Example 346, N-[4-(1-tert-Butyl-1H-pyrazol-4-yl)-3-sulfamoylphenyl]-2-(2-fluorophenyl)acetamide] | 105% | 46 nM
13 | NS(=O)(=O)c1cc(NC(=O)Cc2ccccc2Cl)ccc1-n1cc(CC(F)F)cn1 [Example 259, 2-(2-Chlorophenyl)-N-{4-[4-(2,2-difluoroethyl)-1H-pyrazol-1-yl]-3-sulfamoylphenyl}-acetamide] | 91% | 50 nM
14 | N#Cc1cnn(-c2ccc(NC(=O)Cc3ccc(O)cc3Cl)cc2S(N)(=O)=O)c1 [Example 555, 2-(2-Chloro-4-hydroxyphenyl)-N-[4-(4-cyano-1H-pyrazol-1-yl)-3-sulfamoylphenyl]acetamide] | 94% | 22 nM
15 | COc1ccccc1CC(=O)Nc1ccc(-n2cc(Cl)cn2)c(S(N)(=O)=O)c1 [Example 75, N-[4-(4-Chloro-1H-pyrazol-1-yl)-3-sulfamoylphenyl]-2-(2-methoxyphenyl)acetamide] | 87% | 213 nM
16 | NS(=O)(=O)c1cc(NC(=O)Cc2ccccc2Cl)ccc1-c1cncc(F)c1 [Example 327, 2-(2-Chlorophenyl)-N-[4-(5-fluoropyridin-3-yl)-3-sulfamoylphenyl]acetamide] | 94% | 11 nM
17 | NS(=O)(=O)c1cc(NC(=O)Cc2cccc(F)c2F)ccc1-n1cc(Cl)cn1 [Example 87, N-[4-(4-Chloro-1H-pyrazol-1-yl)-3-sulfamoylphenyl]-2-(2,3-difluorophenyl)acetamide] | 82% | 342 nM

Row | Compound | Emax | IC50
18 | N#Cc1cnn(-c2ccc(NC(=O)Cc3cc(Cl)ccc3Cl)cc2S(N)(=O)=O)c1 [Example 211, N-[4-(4-Cyano-1H-pyrazol-1-yl)-3-sulfamoylphenyl]-2-(2,5-dichlorophenyl)acetamide] | 94% | 75 nM
19 | NS(=O)(=O)c1cc(NC(=O)Cc2cc(Br)ccc2Cl)ccc1-n1cc(C(F)(F)F)cn1 [Example 245, 2-(5-Bromo-2-chlorophenyl)-N-{3-sulfamoyl-4-[4-(trifluoromethyl)-1H-pyrazol-1-yl]phenyl}acetamide] | 88% | 474 nM
20 | NS(=O)(=O)c1cc(NC(=O)Cc2ccccc2F)cnc1-n1cc(F)cn1 [Example 384, 2-(2-Fluorophenyl)-N-[6-(4-fluoro-1H-pyrazol-1-yl)-5-sulfamoylpyridin-3-yl]acetamide] | 81% | 524 nM
21 | CC(C)c1ccccc1CC(=O)Nc1ccc(-n2cc(F)cn2)c(S(N)(=O)=O)c1 [Example 167, N-[4-(4-Fluoro-1H-pyrazol-1-yl)-3-sulfamoylphenyl]-2-(2-isopropylphenyl)acetamide] | 94% | 64 nM
22 | NS(=O)(=O)c1cc(NC(=O)Cc2ccccc2F)ccc1-n1cnc(C2CC2)c1 [Example 263, N-[4-(4-Cyclopropyl-1H-imidazol-1-yl)-3-sulfamoylphenyl]-2-(2-fluorophenyl)-acetamide] | 96% | 337 nM
23 | NS(=O)(=O)c1cc(NC(=O)Cc2ccc(C(F)(F)F)cc2Cl)ccc1-n1cc(C(F)(F)F)nn1 [Example 415, 2-[2-Chloro-4-(trifluoromethyl)phenyl]-N-{3-sulfamoyl-4-[4-(trifluoromethyl)-1H-1,2,3-triazol-1-yl]phenyl}acetamide] | 69% | 200 nM
24 | Cc1ccccc1CC(=O)Nc1ccc(-n2cc(Br)cn2)c(S(N)(=O)=O)c1 [Example 66, N-[4-(4-Bromo-1H-pyrazol-1-yl)-3-sulfamoylphenyl]-2-(2-methylphenyl)acetamide] | 90% | 86 nM
25 | NS(=O)(=O)c1cc(NC(=O)C(O)c2ccccc2Cl)ccc1-c1cnn(C2CC2)c1 (centres unmarked) [Example 323, 2-(2-Chlorophenyl)-N-[4-(1-cyclopropyl-1H-pyrazol-4-yl)-3-sulfamoylphenyl]-2-hydroxyethanamide] | 81% | 2580 nM
26 | N#Cc1cnn(-c2ccc(NC(=O)Cc3ccccc3OC(F)(F)F)cc2S(N)(=O)=O)c1 [Example 204, N-[4-(4-Cyano-1H-pyrazol-1-yl)-3-sulfamoylphenyl]-2-[2-(trifluoromethoxy)phenyl]-acetamide] | 86% | 72 nM
27 | COc1ccc(CC(=O)Nc2ccc(-n3cc(C(F)(F)F)cn3)c(S(N)(=O)=O)c2)cc1 [Example 121, 2-(4-Methoxyphenyl)-N-{3-sulfamoyl-4-[4-(trifluoromethyl)-1H-pyrazol-1-yl]phenyl}-acetamide] | 70% | 292 nM
28 | CN(C)c1nc(-c2ccc(NC(=O)Cc3ccccc3Cl)cc2S(N)(=O)=O)cs1 [Example 495, 2-(2-Chlorophenyl)-N-{4-[2-(dimethylamino)-1,3-thiazol-4-yl]-3-sulfamoylphenyl}acetamide] | 75% | 128 nM
29 | Cc1ccc(-c2ccc(NC(=O)Cc3ccccc3Cl)cc2S(N)(=O)=O)cn1 [Example 372, 2-(2-Chlorophenyl)-N-[4-(6-methylpyridin-3-yl)-3-sulfamoylphenyl]acetamide] | 83% | 166 nM
30 | NS(=O)(=O)c1cc(NC(=O)Cc2ccccc2Cl)ccc1-n1cnc(-c2cccnc2)n1 [Example 392, 2-(2-Chlorophenyl)-N-{4-[3-(pyridin-3-yl)-1H-1,2,4-triazol-1-yl]-3-sulfamoylphenyl}acetamide] | 64% | 9660 nM
31 | Cc1ccc(F)c(CC(=O)Nc2ccc(-n3cc(F)cn3)c(S(N)(=O)=O)c2)c1Cl [Example 159, 2-(2-Chloro-6-fluoro-3-methylphenyl)-N-[4-(4-fluoro-1H-pyrazol-1-yl)-3-sulfamoyl-phenyl]acetamide] | 82% | 12 nM
32 | NS(=O)(=O)c1cc(NC(=O)Cc2ccccc2F)ccc1-c1cnn(C2CCCC2)c1 [Example 348, N-[4-(1-Cyclopentyl-1H-pyrazol-4-yl)-3-sulfamoylphenyl]-2-(2-fluorophenyl)-acetamide] | 96% | 47 nM
33 | NS(=O)(=O)c1cc(NC(=O)Cc2ccccc2Cl)ccc1-c1cncc(C(F)(F)F)c1 [Example 331, 2-(2-Chlorophenyl)-N-{3-sulfamoyl-4-[5-(trifluoromethyl)pyridin-3-yl]phenyl}-acetamide] | 66% | –
